Patent US11492335B2, “Aryl or heteroaryl triazolone derivatives or salts thereof, or pharmaceutical compositions comprising the same” (YUHAN CORPORATION, priority 2018, dated 2022)
Structures can show the parent of a compound that is named as a salt.

Assays:
Assay type in all cases: biochemical
[1] = target: T1, recombinant human MAO-B (monoamine oxidase-B) (Homo sapiens, UniProt P27338); assay: Activity on recombinant human MAO-B, Amplex Red method, 1 mM benzylamine substrate; settings: 1 mM benzylamine, read-out: Inhibitory Activity (IC50, nM) MAO-B
T1 construct: purchased Sigma-Aldrich
T1 sequence (P27338 1-520): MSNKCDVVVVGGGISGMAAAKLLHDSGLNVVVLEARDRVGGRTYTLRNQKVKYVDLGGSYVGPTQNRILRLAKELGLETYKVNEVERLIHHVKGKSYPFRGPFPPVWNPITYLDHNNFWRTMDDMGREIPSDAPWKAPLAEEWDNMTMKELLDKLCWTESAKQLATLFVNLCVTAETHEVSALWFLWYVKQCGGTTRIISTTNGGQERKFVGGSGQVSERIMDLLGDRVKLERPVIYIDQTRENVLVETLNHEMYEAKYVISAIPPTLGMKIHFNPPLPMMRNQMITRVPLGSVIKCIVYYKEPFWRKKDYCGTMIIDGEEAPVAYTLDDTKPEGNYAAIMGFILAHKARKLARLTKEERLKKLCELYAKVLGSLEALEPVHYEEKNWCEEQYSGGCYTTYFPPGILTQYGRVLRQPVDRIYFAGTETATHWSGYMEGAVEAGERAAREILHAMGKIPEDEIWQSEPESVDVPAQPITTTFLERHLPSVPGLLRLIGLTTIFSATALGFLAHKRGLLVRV
Outline: (§1)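 First, serially diluted compounds were incubated with recombinant enzyme in 50 mM sodium phosphate, pH 7.4, for 30 min at 37° C. Next, Amplex Red (200 uM), HRP (1 U/mL) and tyramine (0.5 mM, MAO-A) or benzylamine (1 mM, MAO-B) were added. Then fluorescence was monitored over 1-2 h and IC50 fitted.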

[2] = target: T2, recombinant human MAO-A (monoamine oxidase-A) (Homo sapiens, UniProt P21397); assay: Activity on recombinant human MAO-A, Amplex Red method, 0.5 mM tyramine substrate; settings: 0.5 mM tyramine, read-out: Inhibitory Activity (IC50, nM) MAO-A
T2 construct: purchased Sigma-Aldrich
T2 sequence (P21397 1-527): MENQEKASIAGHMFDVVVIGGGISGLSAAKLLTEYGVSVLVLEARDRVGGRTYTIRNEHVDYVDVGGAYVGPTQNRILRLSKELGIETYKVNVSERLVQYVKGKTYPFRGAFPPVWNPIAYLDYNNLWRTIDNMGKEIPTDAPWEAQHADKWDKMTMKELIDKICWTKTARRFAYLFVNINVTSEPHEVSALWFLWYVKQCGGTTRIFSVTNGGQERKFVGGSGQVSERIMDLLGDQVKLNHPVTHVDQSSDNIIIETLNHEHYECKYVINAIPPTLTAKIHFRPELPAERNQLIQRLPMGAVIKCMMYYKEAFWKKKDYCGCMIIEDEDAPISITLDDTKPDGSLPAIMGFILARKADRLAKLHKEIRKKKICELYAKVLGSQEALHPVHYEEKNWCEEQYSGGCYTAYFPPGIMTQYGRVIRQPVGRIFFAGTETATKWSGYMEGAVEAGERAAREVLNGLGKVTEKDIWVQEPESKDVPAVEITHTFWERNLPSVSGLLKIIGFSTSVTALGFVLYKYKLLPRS
Outline: as §1

[3] = target: T3, recombinant human VAP-1 (Homo sapiens, UniProt Q16853); assay: Activity on recombinant human VAP-1, Amplex Red HRP-coupled hydrogen peroxide assay, benzylamine substrate; settings: recombinant human VAP-1, benzylamine substrate, 30 min preincubation at 37° C.; read-out: Inhibitory Activity (IC50, nM) human VAP-1
T3 construct: purchased R&D systems
T3 sequence (Q16853 1-763): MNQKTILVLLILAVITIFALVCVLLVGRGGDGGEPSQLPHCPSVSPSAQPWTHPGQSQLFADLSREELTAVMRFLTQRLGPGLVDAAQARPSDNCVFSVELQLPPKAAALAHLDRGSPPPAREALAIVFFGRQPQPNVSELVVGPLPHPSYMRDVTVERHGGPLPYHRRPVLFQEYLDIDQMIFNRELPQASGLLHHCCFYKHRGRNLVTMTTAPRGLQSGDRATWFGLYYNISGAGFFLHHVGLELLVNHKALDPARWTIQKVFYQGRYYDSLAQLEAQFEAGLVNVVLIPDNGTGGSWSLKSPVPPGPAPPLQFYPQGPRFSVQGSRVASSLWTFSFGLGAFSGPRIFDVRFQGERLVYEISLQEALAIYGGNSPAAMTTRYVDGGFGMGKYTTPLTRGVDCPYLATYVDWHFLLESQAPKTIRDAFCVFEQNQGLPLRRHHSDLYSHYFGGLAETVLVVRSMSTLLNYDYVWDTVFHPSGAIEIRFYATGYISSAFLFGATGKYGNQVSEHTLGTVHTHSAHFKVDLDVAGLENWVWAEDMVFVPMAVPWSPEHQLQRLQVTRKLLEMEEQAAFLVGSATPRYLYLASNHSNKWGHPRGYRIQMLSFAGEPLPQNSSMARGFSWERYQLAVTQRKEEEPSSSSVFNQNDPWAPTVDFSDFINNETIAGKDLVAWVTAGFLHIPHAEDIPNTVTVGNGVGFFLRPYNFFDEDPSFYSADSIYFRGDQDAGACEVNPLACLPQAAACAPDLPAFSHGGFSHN
Outline: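 H2O2 generation from 1 mM benzylamine was coupled via 1 U/mL HRP to 200 uM Amplex Red; inhibitors, serially diluted 1:3 over 8 points with under 1% final DMSO, had been preincubated 30 min at 37 °C. IC50 from percentage drop in rate.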

[4] = target: T4, recombinant human DAO (diamine oxidase) (Homo sapiens, UniProt P19801); assay: Activity on recombinant human DAO, Amplex Red method, 1 mM putrescine substrate; settings: recombinant human DAO, 1 mM putrescine; * = between 10 and 100 nM, ** = between 300 and 1000 nM; read-out: Inhibitory Activity (IC50, nM) DAO
T4 construct: purchased R&D systems
T4 sequence (P19801 20-751): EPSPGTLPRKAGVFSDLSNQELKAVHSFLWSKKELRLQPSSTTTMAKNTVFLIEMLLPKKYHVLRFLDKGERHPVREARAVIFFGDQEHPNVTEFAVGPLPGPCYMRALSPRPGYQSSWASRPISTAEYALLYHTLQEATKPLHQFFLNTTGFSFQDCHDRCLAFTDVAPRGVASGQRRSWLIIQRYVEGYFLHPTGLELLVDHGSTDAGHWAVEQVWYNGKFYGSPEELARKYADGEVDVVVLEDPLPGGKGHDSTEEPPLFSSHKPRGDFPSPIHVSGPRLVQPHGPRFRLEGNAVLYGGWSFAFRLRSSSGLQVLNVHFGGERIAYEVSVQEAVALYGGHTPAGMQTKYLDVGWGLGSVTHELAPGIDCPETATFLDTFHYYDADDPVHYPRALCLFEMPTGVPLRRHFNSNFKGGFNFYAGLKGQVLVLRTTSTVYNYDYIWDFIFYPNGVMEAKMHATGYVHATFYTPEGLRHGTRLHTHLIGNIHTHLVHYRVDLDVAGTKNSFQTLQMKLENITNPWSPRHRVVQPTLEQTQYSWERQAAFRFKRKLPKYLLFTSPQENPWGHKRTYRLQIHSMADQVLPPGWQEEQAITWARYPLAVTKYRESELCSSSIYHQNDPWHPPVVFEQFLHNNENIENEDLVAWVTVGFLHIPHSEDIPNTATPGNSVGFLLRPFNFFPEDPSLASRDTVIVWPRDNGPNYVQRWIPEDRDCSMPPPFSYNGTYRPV
Outline: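 Inhibition of recombinant human DAO (diamine oxidase, R&D systems) was assessed with the Amplex Red Hydrogen Peroxide Assay Kit. Hydrogen peroxide produced from 1 mM putrescine was detected through an HRP-coupled reaction that converts Amplex Red into fluorescent resorufin, read at 544 nm excitation and 590 nm emission. IC50 values came from four-parameter logistic fits in GraphPad Prism.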

SMILES	IC50 [1] [nM]	IC50 [2] [nM]	IC50 [3] [nM]	IC50 [4] [nM]
Cc1cc(-c2cccc(-n3cnn(C/C(=C/F)CN)c3=O)c2)cn(C)c1=O [Example 89, 5-(3-{1-[(2E)-2-(aminomethyl)-3-fluoroprop-2-en-1-yl]-5-oxo-1,5-dihydro-4H-1,2,4-triazol-4-yl}phenyl)-1,3-dimethylpyridin-2(1H)-one hydrochloride]	> 10000	> 100000	0.6	4.7
CC(C)n1cc(-c2cccc(-n3cnn(C/C(=C/F)CN)c3=O)c2)ccc1=O [Example 90, 5-(3-{1-[(2E)-2-(aminomethyl)-3-fluoroprop-2-en-1-yl]-5-oxo-1,5-dihydro-4H-1,2,4-triazol-4-yl}phenyl)-1-(propan-2-yl)pyridin-2(1H)-one hydrochloride]	> 10000	> 100000	1.4	19
NC/C(=C\F)Cn1ncn(-c2cccc(-c3ccc4nonc4c3)c2)c1=O [Example 96, 2-[(2E)-2-(aminomethyl)-3-fluoroprop-2-en-1-yl]-4-[3-(2,1,3-benzooxadiazol-5-yl)phenyl]-2,4-dihydro-3H-1,2,4-triazol-3-one hydrochloride]	390	> 100000	0.51	< 100
NC/C(=C\F)Cn1ncn(-c2cccc(-c3ccc4cn[nH]c4c3)c2)c1=O [Example 97, 2-[(2E)-2-(aminomethyl)-3-fluoroprop-2-en-1-yl]-4-[3-(1H-indazol-6-yl)phenyl]-2,4-dihydro-3H-1,2,4-triazol-3-one hydrochloride]	> 10000	22500	0.68	< 30
NC/C(=C\F)Cn1ncn(-c2cccc(-c3cccc4[nH]ccc34)c2)c1=O [Example 98, 2-[(2E)-2-(aminomethyl)-3-fluoroprop-2-en-1-yl]-4-[3-(1H-indol-4-yl)phenyl]-2,4-dihydro-3H-1,2,4-triazol-3-one hydrochloride]	9320	76400	4.7	68
NC/C(=C\F)Cn1ncn(-c2cccc(-c3ccc4sc(N)nc4c3)c2)c1=O [Example 99, 4-[3-(2-amino-1,3-benzothiazol-5-yl)phenyl]-2-[(2E)-2-(aminomethyl)-3-fluoroprop-2-en-1-yl]-2,4-dihydro-3H-1,2,4-triazol-3-one hydrochloride]	6420	> 100000	0.82	< 100
NC/C(=C\F)Cn1ncn(-c2cccc(-c3c[nH]c4ccccc34)c2)c1=O [Example 100, 2-[(2E)-2-(aminomethyl)-3-fluoroprop-2-en-1-yl]-4-[3-(1H-indol-3-yl)phenyl]-2,4-dihydro-3H-1,2,4-triazol-3-one hydrochloride]	162	39300	0.92	27
NC/C(=C\F)Cn1ncn(-c2cccc(-c3cc4ccccc4s3)c2)c1=O [Example 101, 2-[(2E)-2-(aminomethyl)-3-fluoroprop-2-en-1-yl]-4-[3-(1-benzothiophen-2-yl)phenyl]-2,4-dihydro-3H-1,2,4-triazol-3-one hydrochloride]	300	58000	0.9	34

The remaining lines, values ahead:

IC50 [1] [nM]	IC50 [2] [nM]	IC50 [3] [nM]	IC50 [4] [nM]	SMILES
1350	9.69	1.1	41	NC/C(=C/F)Cn1ncn(-c2cccc(-c3ccc4c(c3)OCO4)c2)c1=O [Example 92, 2-[(2Z)-2-(aminomethyl)-3-fluoroprop-2-en-1-yl]-4-[3-(1,3-benzodioxol-5-yl)phenyl]-2,4-dihydro-3H-1,2,4-triazol-3-one hydrochloride]
221	> 10000	0.48	< 100	NC/C(=C\F)Cn1ncn(-c2cccc(-c3ccc4c(c3)OCO4)c2)c1=O [Example 93, 2-[(2E)-2-(aminomethyl)-3-fluoroprop-2-en-1-yl]-4-[3-(1,3-benzodioxol-5-yl)phenyl]-2,4-dihydro-3H-1,2,4-triazol-3-one hydrochloride]
2630	> 100000	2	120	NC/C(=C/F)Cn1ncn(-c2cccc(-c3ccc4c(c3)OCCO4)c2)c1=O [Example 94, 2-[(2Z)-2-(aminomethyl)-3-fluoroprop-2-en-1-yl]-4-[3-(2,3-dihydro-1,4-benzodioxin-6-yl)phenyl]-2,4-dihydro-3H-1,2,4-triazol-3-one hydrochloride]
1460	> 100000	0.69	37	NC/C(=C\F)Cn1ncn(-c2cccc(-c3ccc4c(c3)OCCO4)c2)c1=O [Example 95, 2-[(2E)-2-(aminomethyl)-3-fluoroprop-2-en-1-yl]-4-[3-(2,3-dihydro-1,4-benzodioxin-6-yl)phenyl]-2,4-dihydro-3H-1,2,4-triazol-3-one hydrochloride]
